Reference: article PMC9694926, “Novel Uracil-Based Inhibitors of Acetylcholinesterase with Potency for Treating Memory Impairment in an Animal Model of Alzheimer’s Disease” (Molecules, 2022)

What was measured:
hAChE [1] = target: T1, hAChE (Homo sapiens, UniProt P22303); format: in vitro ADME; conditions: 0.1 mM, overnight with hAChE, phosphate buffer pH 8.0, 25 °C, NMR
T1 construct: purchased Sigma-Aldrich
Method: There is a possibility that the ester group of the compound 2c can be hydrolyzed by AChE. To test this possibility, the compound 2c (0.1 mM) was incubated overnight with AChE in phosphate buffer (pH 8.0). The same buffer containing compound 2c but without AChE was used as a control. After the end of incubation, the buffer was filtered out of AChE using a centricon-30 ultrafiltration micro-concentrator from Amicon (Millipore Corporation, Billerica, MA, USA) and samples were analyzed by NMR spectroscopy. It was shown that the resonance signals both in the control spectrum and in the spectrum of the residue after AChE treatment are almost the same to those for compound 2c (Supplementary materials, Figures S6, S22 and S41–S44).
The compound 2c was dissolved in ethanol and then in 2 mL of 0.1M sodium phosphate buffer (pH = 8.0) at the final concentration of 0.1 mM. Then, 2.0 units of hAChE were added. The final concentration of ethanol in the buffer was 0.1% vol. The compound 2c was incubated with hAChE overnight at 25 °C. The same volume of buffer containing compound 2c at the concentration of 0.1 mM but without AChE was used as a control. After the end of incubation, the buffer was filtered out of AChE using a centricon-30 ultrafiltration micro-concentrator from Amicon (Millipore Corporation, Billerica, MA, USA). […]

hBChE = target: T2, hBChE (Homo sapiens, UniProt P06276); test: Inhibition constants and inhibition type for hBChE (Dixon and Cornish-Bowden plots); format: biochemical
T2 construct: hBChE from blood plasma; purchased Sigma-Aldrich; host or cells: human blood plasma
Method: (§1) To study the mechanism of hAChE and hBChE inhibition by compound 2c, the inhibition constants (Ki) were determined. Experiments were performed using three different concentrations of acetylthiocholine (ATC) as substrate for hAChE or butyrylthiocholine (BTC) for hBChE. Analysis of Dixon and Cornish-Bowden plots established that hAChE and hBChE inhibition was of mixed type, with Kci (competitive inhibition) and Kui (uncompetitive) components: Kci = […], Kui = 315 ± 95 pM for hAChE (Figure 3A,B), and Kci = 10.1 ± 3.1 µM, Kui = 24 ± 4.6 µM for hBChE (Figure 3C,D).
(§2) The inhibition constants (Ki) for hAChE and hBChE were determined by Ellman’s method at 412 nm and 25 °C in 0.1M sodium phosphate buffer (pH = 8.0) with various substrate (ATC, BTC) concentrations in the range 0.01–0.1 mM, using UV-1800 Shimadzu (Kyoto, Japan) spectrophotometer. The final enzyme concentration in the assays was in the picomolar range. Controls of active enzyme and substrate spontaneous hydrolysis in the absence of an inhibitor were performed for each substrate concentration. Absorbance change was recorded for 5 min. Inhibition constants were determined from Dixon plot and Cornish-Bowden transformation.

CD1 mice = test: Acute toxicity (LD50), intraperitoneal injection; format: in vivo; conditions: i.p. injection
Method: All experiments involving animals were performed in accordance with the guidelines set out by the European Union Council Directive 2010/63/EU; the experimental protocols were approved by the Animal Care and Use Committee of the Federal Research Center “Kazan Scientific Center of the Russian Academy of Sciences”. Toxicological experiments were performed using intraperitoneal injection of the various compounds in CD1 mice weighing 20–25 g. Mice were maintained on a 12 h light/dark cycle (light from 7:00 a.m. to 7:00 p.m.) at 20−22 °C and 60−70% relative humidity. Five different doses (determined during preliminary tests) were used with six animals per dose. Animals were observed 14 days after injection, and symptoms of intoxication were recorded. […] LD50 was determined by the method of Weiss. Stock solutions of compounds were prepared in ethanol or water. Compounds were administered intraperitoneally in sterile physiological saline. The concentration of ethanol in physiological saline was 5% vol.

hAChE [2] = target: T1, hAChE; test: Inhibition constants and inhibition type for hAChE (Dixon and Cornish-Bowden plots); format: biochemical
Method: as §1, §2

T1 sequence (P22303 32-614): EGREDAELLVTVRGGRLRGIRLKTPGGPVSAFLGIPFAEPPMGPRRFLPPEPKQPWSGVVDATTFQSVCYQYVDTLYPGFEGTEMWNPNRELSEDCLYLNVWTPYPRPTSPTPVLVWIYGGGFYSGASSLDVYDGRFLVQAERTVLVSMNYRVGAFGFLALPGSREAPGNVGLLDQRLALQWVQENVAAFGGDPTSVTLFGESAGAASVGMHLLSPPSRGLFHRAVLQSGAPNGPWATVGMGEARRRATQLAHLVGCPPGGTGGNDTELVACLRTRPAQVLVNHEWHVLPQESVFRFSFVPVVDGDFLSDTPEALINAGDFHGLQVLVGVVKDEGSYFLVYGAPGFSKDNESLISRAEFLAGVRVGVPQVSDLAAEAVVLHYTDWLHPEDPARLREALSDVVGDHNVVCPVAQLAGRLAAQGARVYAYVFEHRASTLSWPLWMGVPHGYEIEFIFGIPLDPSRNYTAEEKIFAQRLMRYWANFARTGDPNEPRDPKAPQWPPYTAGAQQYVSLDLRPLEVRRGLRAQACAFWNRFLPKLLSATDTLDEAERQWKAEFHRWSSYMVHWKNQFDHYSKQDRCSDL
T2 sequence (P06276 29-602): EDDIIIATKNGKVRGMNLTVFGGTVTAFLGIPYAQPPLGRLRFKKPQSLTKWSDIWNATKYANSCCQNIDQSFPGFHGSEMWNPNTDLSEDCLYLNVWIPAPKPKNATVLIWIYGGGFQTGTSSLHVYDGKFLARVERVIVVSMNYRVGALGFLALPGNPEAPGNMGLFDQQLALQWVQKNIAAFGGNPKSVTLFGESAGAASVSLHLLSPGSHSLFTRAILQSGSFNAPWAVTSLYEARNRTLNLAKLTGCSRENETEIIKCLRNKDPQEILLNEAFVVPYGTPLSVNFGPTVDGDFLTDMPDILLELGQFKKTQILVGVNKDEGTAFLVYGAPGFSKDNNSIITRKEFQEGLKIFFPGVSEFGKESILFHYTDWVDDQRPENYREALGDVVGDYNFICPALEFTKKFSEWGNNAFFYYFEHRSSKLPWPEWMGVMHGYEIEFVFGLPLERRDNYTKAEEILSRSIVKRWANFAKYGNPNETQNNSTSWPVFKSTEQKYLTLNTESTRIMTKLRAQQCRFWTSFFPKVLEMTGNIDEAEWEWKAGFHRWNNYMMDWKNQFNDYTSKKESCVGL

`CCN(CCCCCn1c(C)cc(=O)n(CCCCCN(CC)Cc2cccc(C(=O)OC)c2)c1=O)Cc1cccc(C(=O)OC)c1` [2c, 1,3-Bis[5-(meta-methoxycarbonylbenzylethylamino)pentyl]-6-methyluracil] was tested, and the “stability in the presence of AChE (hydrolysis of ester groups)” value (hAChE [1]) was “remains stable in the presence of AChE”, the type of inhibition (hBChE) was “mixed type” and the “Kui (uncompetitive)” value (hBChE; substrate BTC) was 24 ± 4.6 µM. For the same compound, the LD50 (CD1 mice) was 147 mg/kg, the type of inhibition (hAChE [2]) was “mixed type” and the “Kui (uncompetitive)” value (hAChE [2]; substrate ATC) was 315 ± 95 pM.
